In US20240174636A1, “NOVEL INDOLEAMINE 2,3-DIOXYGENASE INHIBITORS, PROCESSES FOR THE PREPARATION THEREOF AND PHARMACEUTICAL COMPOSITIONS COMPRISING THE SAME” (YUHAN CORPORATION, priority 2021, published 2024) one finds IC50 data, which are given here for 23 compounds.

Molecules are shown by their SMILES.

The target in one test is T1, IDO1 (Homo sapiens, UniProt P14902). Kind of test: IDO1 cellular activity using Hela cells (IFN-gamma induced IDO expression, kynurenine absorbance at 480 nm). It is filed as cell-based. The settings on record: IDO induced with interferon gamma 50 ng/ml, 24 h compound incubation, read-out: Inhibitory Activity (IC50). On the procedure: Hela cells were seeded at a density of 20000 cells/well in 100 μl of a culture medium (EMEM supplemented with 10% FBS, penicillin 100 U/ml, and streptomycin 100 μg/ml) in a tissue culture-treated 96 well plate. The cells were cultured in a 5% carbon dioxide incubator for 24 hours, treated with recombinant human interferon gamma at the concentration of 50 ng/ml, and then cultured for 48 hours in a 5% carbon dioxide incubator to induce IDO expression.
T1 sequence (P14902 whole entry): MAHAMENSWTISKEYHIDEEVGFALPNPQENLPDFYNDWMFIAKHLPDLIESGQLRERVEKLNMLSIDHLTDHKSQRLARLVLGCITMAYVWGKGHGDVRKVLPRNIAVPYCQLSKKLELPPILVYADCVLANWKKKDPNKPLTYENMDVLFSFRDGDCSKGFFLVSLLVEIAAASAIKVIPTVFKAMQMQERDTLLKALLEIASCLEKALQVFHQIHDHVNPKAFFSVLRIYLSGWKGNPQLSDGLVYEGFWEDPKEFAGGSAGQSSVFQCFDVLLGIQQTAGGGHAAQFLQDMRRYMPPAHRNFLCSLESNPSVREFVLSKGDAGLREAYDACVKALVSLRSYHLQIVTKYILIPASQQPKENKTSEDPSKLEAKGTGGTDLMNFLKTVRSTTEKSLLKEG
The activities were measured using IDO1 cellular activity-measuring substrate (IDO1 cellular activity quickDetect supplements catalog: #62000-2, BPS Bioscience). Specifically, an assay medium was prepared by diluting IDO1 assay medium substrate 1 and IDO1 assay medium supplement 2 in a culture medium at a ratio of 1:100, respectively. The test compounds were diluted to the predetermined concentrations in the fresh assay medium. After removing the culture medium using a multi-pipet, 200 μl of each assay medium containing the test material was added into the respective well, followed by incubating in a 5% carbon dioxide incubator for 24 hours. The next day, 140 μl of culture medium from each well was transferred to a new 96-well plate. 10 μl of 6.1N trichloroacetic acid was added into each well, which was then cultured in a 50° C. incubator for 30 minutes. The plate was centrifuged at 2500 rpm for 10 minutes to settle any sediment. A detection reagent solution was prepared by diluting the detection reagent (component D kit, catalog: #62000-2, BPS Bioscience) 50-fold in acetic acid. 100 μl of the supernatant taken from the centrifuged plate was transferred to a new transparent 96-well plate and then 100 μl of the detection reagent solution was added thereto. After reacting at room temperature for 10 minutes, absorbance was measured at 480 nm wavelength. For analysis of the results, the absorbance (At) of the well containing Hela cells in which IDO protein expression was induced without treatment of an inhibitor was 100%; and the absorbance (Ab) of the well containing Hela cells in which IDO protein expression was not induced was 0. The % absorbance was calculated according to the following equation: % Absorbance=(A−Ab)/(At−Ab), A=absorbance of the well treated with the test compound.
The results obtained by calculating the 50% inhibitory concentration (C50) of each compound, from the absorbance values obtained as described above, are shown in Table 1 below.
`C[C@H](C[C@H]1CC[C@H](c2ccnc3ccc(F)cc32)CC1)Nc1cc(=O)oc2ccc(Br)cc12` [Example 7, 6-bromo-4-(((R)-1-((trans)-4-(6-fluoroquinolin-4-yl)cyclohexyl)propan-2-yl)amino)-2H-chromen-2-one]: the half-inhibitory concentration (IC50) (usually the concentration that inhibits the measured activity by half) stood at 19 nM.
The same measure, in the same setting: as for `C[C@H](C[C@H]1CC[C@@H](c2ccnc3ccc(F)cc32)CC1)Nc1nc2ccccc2o1` [Example 24, N-((R)-1-((cis)-4-(6-fluoroquinolin-4-yl)cyclohexyl)propan-2-yl)benzo[d]oxazol-2-amine], the figure is 17 nM; as for `C[C@H](C[C@H]1CC[C@@H](c2ccnc3ccc(F)cc32)CC1)Nc1nc2ncccc2s1` [Example 21, N-((R)-1-((cis)-4-(6-fluoroquinolin-4-yl)cyclohexyl)propan-2-yl)thiazolo[4,5-b]pyridin-2-amine], 18 nM.
With `C[C@H](C[C@H]1CC[C@H](c2ccnc3ccc(F)cc32)CC1)Nc1cc(=O)oc2cc(Cl)ccc12` [Example 6, 7-chloro-4-(((R)-1-((trans)-4-(6-fluoroquinolin-4-yl)cyclohexyl)propan-2-yl)amino)-2H-chromen-2-one], the 50% inhibitory concentration (IC50) was 17 nM.
With `C[C@H](C[C@H]1CC[C@@H](c2ccnc3ccc(F)cc32)CC1)Nc1ncnc2cc(C#N)ccc12` [Example 1, 4-(((R)-1-((cis)-4-(6-fluoroquinolin-4-yl)cyclohexyl)propan-2-yl)amino)quinazolin-7-carbonitrile], the IC50 came to 16 nM.
Take `C[C@H](C[C@H]1CC[C@@H](c2ccnc3ccc(F)cc32)CC1)Nc1cc(=O)oc2cc(Br)ccc12` [Example 9, 7-bromo-4-(((R)-1-((cis)-4-(6-fluoroquinolin-4-yl)cyclohexyl)propan-2-yl)amino)-2H-chromen-2-one]: the IC50 was 18 nM.
On the same count and under the same terms, to `CC[C@H](C[C@H]1CC[C@@H](c2ccnc3ccc(F)cc32)CC1)Nc1nc2ccc(OC)cc2s1` [Example 15, N-((R)-1-((cis)-4-(6-fluoroquinolin-4-yl)cyclohexyl)butan-2-yl)-6-methoxybenzo[d]thiazol-2-amine] belongs 5.1 nM.
On the same count and under the same terms, as for `C[C@H](C[C@H]1CC[C@@H](c2ccnc3ccc(F)cc32)CC1)Nc1ncnc2cc(Cl)ccc12` [Example 3, 7-chloro-N-((R)-1-((cis)-4-(6-fluoroquinolin-4-yl)cyclohexyl)propan-2-yl)quinazolin-4-amine], the figure is 14 nM; as for `C[C@H](C[C@H]1CC[C@@H](c2ccnc3ccc(F)cc32)CC1)Nc1cc(=O)oc2cc(Cl)ccc12` [Example 8, 7-chloro-4-(((R)-1-((cis)-4-(6-fluoroquinolin-4-yl)cyclohexyl)propan-2-yl)amino)-2H-chromen-2-one], 5.9 nM.
The same measure, in the same setting: to `COc1ccc2nc(N[C@H](C)C[C@H]3CC[C@@H](c4ccnc5ccc(F)cc54)CC3)sc2c1` [Example 14, N-((R)-1-((cis)-4-(6-fluoroquinolin-4-yl)cyclohexyl)propan-2-yl)-6-methoxybenzo[d]thiazol-2-amine] belongs 1 nM; to `COc1ccc2nc(N[C@@H](C[C@H]3CC[C@@H](c4ccnc5ccc(F)cc54)CC3)C3CC3)sc2c1` [Example 16, N-((S)-1-cyclopropyl-2-((cis)-4-(6-fluoroquinolin-4-yl)cyclohexyl)ethyl)-6-methoxybenzo[d]thiazol-2-amine], 4 nM.

For the next test, the target named is T1, IDO1. Kind of test: IDO1 cellular activity using HEK293 cells transfected with IDO1 expression vector. To be noted: 24 h compound incubation, read-out: Inhibitory Activity (IC50). Set-up: host or cells: HEK293 cells, transient transfection with Lipofectamine 2000. It is filed as cell-based. On the procedure:
HEK293 cells were seeded at a density of 30000 cells/well in 100 μl of a culture medium (DMEM supplemented with 10% FBS, penicillin 100 U/ml, and streptomycin 100 μg/ml) in a tissue culture-treated 96 well plate. The cells were cultured in a 5% carbon dioxide incubator for 24 hours, transfected with the IDO1 expression vector (component A in IDO1 cell-based assay kit, catalog #72031, BPS Bioscience) using Lipofectamine 2000 (Life Technologies, #11668027), and then cultured for 24 hours in a 5% carbon dioxide incubator to express the IDO protein.
The activities were measured using a IDO1 cell-based assay kit (catalog #72031, BPS Bioscience). Specifically, an assay medium was prepared by diluting IDO1 assay medium substrate 1 and IDO1 assay medium supplement 2 in a culture medium at a ratio of 1:100, respectively. The test compounds were diluted to the predetermined concentrations in the fresh assay medium. After removing the culture medium using a multi-pipet, 200 μl of each assay medium containing the test material was added into respective well, followed by incubating in a 5% carbon dioxide incubator for 24 hours. The next day, 140 μl of culture medium from each well was transferred to a new 96-well plate. 10 μl of 6.1N trichloroacetic acid was added into each well, which was then cultured in a 50° C. incubator for 30 minutes. The plate was centrifuged at 2500 rpm for 10 minutes to settle any sediment. A detection reagent solution was prepared by diluting the detection reagent (component D in IDO1 cell-based assay kit, catalog #72031 BPS Bioscience) 50-fold in acetic acid. 100 μl of the supernatant taken from the centrifuged plate was transferred to a new transparent 96-well plate and then 100 μl of the detection reagent solution was added thereto. After reacting at room temperature for 10 minutes, absorbance was measured at 480 nm wavelength. For analysis of the results, the absorbance (At) of the well containing HEK293 cells in which IDO protein was expressed without treatment of an inhibitor was 100%; and the absorbance (Ab) of the well containing HEK293 cells in which IDO protein was not expressed was 0. The % absorbance was calculated according to the following equation: % Absorbance=(A−Ab)/(At−Ab), A=absorbance of the well treated with the test compound.
As for `C[C@H](C[C@H]1CC[C@H](c2ccnc3ccc(F)cc32)CC1)Nc1nc(Cl)nc2c(OC(F)(F)F)cccc12` [Example 53, 2-chloro-N-((R)-1-((trans)-4-(6-fluoroquinolin-4-yl)cyclohexyl)propan-2-yl)-8-(trifluoromethoxy)quinazolin-4-amine], the IC50 stood at 57.4 nM.
The same measure, in the same setting: to `C[C@H](C[C@H]1CC[C@H](c2ccnc3ccc(F)cc32)CC1)Nc1nc(Cl)nc2cc(Cl)ccc12` [Example 41, 2,7-dichloro-N-((R)-1-((trans)-4-(6-fluoroquinolin-4-yl)cyclohexyl)propan-2-yl)quinazolin-4-amine] belongs 7.6 nM; to `C[C@H](C[C@H]1CC[C@@H](c2ccnc3ccc(F)cc32)CC1)Nc1nccc2cc(F)ccc12` [Example 33, 6-fluoro-N-((R)-1-((cis)-4-(6-fluoroquinolin-4-yl)cyclohexyl)propan-2-yl)isoquinolin-1-amine], 116 nM.
Consider `COc1ccc2c(N[C@H](C)C[C@H]3CC[C@H](c4ccnc5ccc(F)cc54)CC3)nc(Cl)nc2c1` [Example 59, 2-chloro-N-((R)-1-((trans)-4-(6-fluoroquinolin-4-yl)cyclohexyl)propan-2-yl)-7-methoxyquinazolin-4-amine], for which the concentration for half-maximal inhibition (IC50) is 19.4 nM.
The same measure, in the same setting: as for `Cc1ccc2c(N[C@H](C)C[C@H]3CC[C@H](c4ccnc5ccc(F)cc54)CC3)nc(Cl)nc2c1` [Example 57, 2-chloro-N-((R)-1-((trans)-4-(6-fluoroquinolin-4-yl)cyclohexyl)propan-2-yl)-7-methylquinazolin-4-amine], the figure is 25.2 nM; as for `C[C@H](C[C@H]1CC[C@@H](c2ccnc3ccc(F)cc32)CC1)Nc1nc(Cl)nc2ccc(Cl)cc12` [Example 61, 2,6-dichloro-N-((R)-1-((cis)-4-(6-fluoroquinolin-4-yl)cyclohexyl)propan-2-yl)quinazolin-4-amine], 406 nM; as for `C[C@H](C[C@H]1CC[C@@H](c2ccnc3ccc(F)cc32)CC1)Nc1nc(Cl)nc2c(F)cccc12` [Example 69, 2-chloro-8-fluoro-N-((R)-1-((cis)-4-(6-fluoroquinolin-4-yl)cyclohexyl)propan-2-yl)quinazolin-4-amine], 18.8 nM.
Still for that read-out and setting: to `C[C@H](C[C@H]1CC[C@@H](c2ccnc3ccc(F)cc32)CC1)Nc1nc2ccc(OCCF)cc2o1` [Example 45, 6-(2-fluoroethoxy)-N-((R)-1-((cis)-4-(6-fluoroquinolin-4-yl)cyclohexyl)propan-2-yl)benzo[d]oxazol-2-amine] belongs 5.5 nM.
Still for that read-out and setting: as for `CCOc1ccc2nc(N[C@H](C)C[C@H]3CC[C@@H](c4ccnc5ccc(F)cc54)CC3)oc2c1` [Example 44, 6-ethoxy-N-((R)-1-((cis)-4-(6-fluoroquinolin-4-yl)cyclohexyl)propan-2-yl)benzo[d]oxazol-2-amine], the figure is 4.4 nM; as for `C[C@H](C[C@H]1CC[C@@H](c2ccnc3ccc(F)cc32)CC1)Nc1nccc2cc(Cl)ccc12` [Example 34, 6-chloro-N-((R)-1-((cis)-4-(6-fluoroquinolin-4-yl)cyclohexyl)propan-2-yl)isoquinolin-1-amine], 68.6 nM; as for `C[C@H](C[C@H]1CC[C@@H](c2ccnc3ccc(F)cc32)CC1)Nc1nc2c(Cl)cccc2s1` [Example 35, 4-chloro-N-((R)-1-((cis)-4-(6-fluoroquinolin-4-yl)cyclohexyl)propan-2-yl)benzo[d]thiazol-2-amine], 105 nM.
Turning to `C[C@H](C[C@H]1CC[C@@H](c2ccnc3ccc(F)cc32)CC1)Nc1nncc2cc(Cl)ccc12` [Example 39, 6-chloro-N-((R)-1-((cis)-4-(6-fluoroquinolin-4-yl)cyclohexyl)propan-2-yl)phthalazin-1-amine], the concentration for half-maximal inhibition (IC50) is 9.7 nM.
